Results: patent US10874631B2, “Altertoxin II as a selective inhibitor of Ewing family of tumor cells” (priority 2016, dated 2020)

What was measured:
[1] = system: A673 Ewing sarcoma murine xenograft; assay: A673 xenograft antitumor efficacy; type: in vivo, Mice
Experimental: FIG. 11. Antitumor efficacy of ATXII against A673 xenograft model. Mice were injected i.p. with 20 mg/kg. ATXII on days 1, 3, 5, 8, 10 and 12, or 40 mg/kg on days 1, 3, and 5.
Studies were conducted to evaluate the in vivo efficacy of altertoxin II in an A673 Ewing sarcoma murine xenograft model (FIG. 11). Mice bearing A673 xenograft tumors were treated with 20 mg/kg altertoxin II on days 1, 3, 5, 8 and 10, or with 40 mg/kg altertoxin II on days 1, 3 and 5.

[2] = system: RD-ES Ewing sarcoma cells; assay: DNA damage response immunoblot (Chk1, Chk2, p53); type: cell-based
Experimental: (§1) FIG. 9A-9B. Altertoxin II causes phosphorylation of CHK1 and 2 and p53 in Ewing sarcoma cells. Ewing sarcoma cells, A673, RD-ES, SK-ES-1, or rhabdomyosarcoma A204 cells were treated with altertoxin II at the concentrations indicated for 6 h (A) or 24 h (B) and whole-cell lysates prepared and proteins separated by SDS-PAGE. These samples were analyzed by immunoblotting for total and phosphorylated Chk1 and 2 and p53 (A).
(§2) Downstream activation of DNA damage response proteins by altertoxin II was subsequently evaluated.

[3] = system: SK-ES-1 Ewing sarcoma cells; assay: DNA damage response immunoblot (Chk1); type: cell-based; conditions: 100 nM and 1 μM, 24 h
Experimental: as §1, §2

[4] = system: A204 rhabdomyosarcoma cells; assay: DNA damage response immunoblot (Chk1); type: cell-based; conditions: concentrations up to 1 μM
Experimental: as §1, §2

SK-ES-1 = assay: SRB assay, growth inhibition; type: cell-based
Experimental: (§3) FIG. 3A-3B. (A) The effects of altertoxin II were evaluated using the SRB assay in 6 Ewing sarcoma cell lines as compared to 4 other pediatric solid tumor cells lines. n≥3 independent experiments. (B) The effects of altertoxin II were evaluated by the Houghton laboratory using the alamar blue assay in an additional 6 Ewing sarcoma cell lines and potency compared to the activities in 5 rhabdomyosarcoma cell lines. n=3 independent experiments.
(§4) The effects of altertoxin II were studied in a larger panel of cell lines and the GI50, the concentration that causes 50% inhibition of cell growth, and the TGI, the concentration that caused total growth inhibition, were determined using the sulforhodamine b (SRB assay). The mean GI50 values shown graphically in FIG. 3A. The IC50, the concentration that causes 50% inhibition of cell proliferation, values were determined in a second panel of Ewing sarcoma and rhabdomyosarcoma cell lines using the altar blue assay and these values are presented in Table 2 and the mean in […].

A204 = assay: SRB assay, growth inhibition; type: cell-based; conditions: A204, RMS
Experimental: as §3, §4

A673 = assay: SRB assay, growth inhibition; type: cell-based; conditions: A673, EWS
Experimental: as §3, §4

SH-SY-5Y = assay: SRB assay, growth inhibition; type: cell-based; conditions: NB
Experimental: as §3, §4

D283 = assay: SRB assay, growth inhibition; type: cell-based; conditions: D283, Med
Experimental: as §3, §4

TC-32 cells = assay: R-loop marker S9.6 immunofluorescence; type: cell-based; conditions: TC-32 nuclei, 24 h
Experimental: (§5) FIG. 8A-8B. The effects of 10 and 100 nM altertoxin II (ATXII) on 53BP1 foci were evaluated following a 6 h treatment of A673 cells by indirect immunofluorescence. (B) Immunofluorescence of R-loop marker S9.6 in TC-32 cells 24 h after ATXII treatment. Arrows indicate R-loops within nuclei.
(§6) Multiple investigators have shown that Ewing sarcoma cells undergo replication stress and R-loop accumulation.

A673 Ewing sarcoma cells [5] = assay: DNA damage response immunoblot (Chk1, Chk2); type: cell-based; conditions: 10-300 nM, within 6 h
Experimental: as §1, §2

A673 Ewing sarcoma cells [6] = assay: 53BP1 foci immunofluorescence; type: cell-based; conditions: 10 nM and 100 nM, within 6 h
Experimental: as §5, §6

Rh30 cells = assay: Conditioned media effect on cell growth, SRB assay; type: cell-based; conditions: media from TC-32 cells treated with 100 nM for 6 h, vs media from Rh30 cells
Experimental: FIG. 10. Effects of ATXII-conditioned media on Rh30 cell growth. TC-32 or Rh30 cells were treated with 100 nM ATXII for 6 h, the media added to Rh30 cells and cell growth determined with the SRB assay.
An experiment was conducted to test this possibility. TC-32 Ewing sarcoma and Rh30 rhabdomyosarcoma cells were treated with 100 nM ATX for 6 h and the conditioned media was then applied to the resistant Rh30 cells. […] Differences in the altertoxin II concentration were measured by LC/MS in media from TC-32 and HepG2 hepatocellular carcinoma cells.

RD-ES cells = assay: PARP cleavage immunoblot (apoptosis); type: cell-based; conditions: 100 nM
Experimental: (§7) FIG. 4A-4B. Altertoxin II selectively induces PARP cleavage in EWS cell lines. Immunoblotting for total and cleaved PARP. (A) Two Ewing sarcoma (EWS) cell lines, RD-ES and SK-ES-1, were treated with 100 nM altertoxin II (ATX) for the indicated amounts of time. Whole-cell lysates were prepared and separated by SDS-PAGE. (B) The EWS cell line SK-ES-1 and rhabdomysosarcoma cell line A204 were treated with the indicated concentrations of ATX for 18 hours, lysed and separated by SDS-PAGE.
(§8) The ability of altertoxin II to initiate cell death via apoptosis, as measured by PARP cleavage, was evaluated in two Ewing sarcoma cells lines, SK-ES-1 and RD-ES. […] A range of altertoxin II concentrations when then evaluated in SK-ES-1 Ewing sarcoma cells as compared to A204 rhabdomyosarcoma cells.

SK-ES-1 cells = assay: PARP cleavage immunoblot (apoptosis); type: cell-based
Experimental: as §7, §8

[7] = system: A204 rhabdomyosarcoma cells; assay: PARP cleavage immunoblot (apoptosis); type: cell-based; conditions: 100 nM and 1 μM, 18 hours
Experimental: as §7, §8

For `O=C1CC[C@]2(O)c3c(ccc(O)c31)-c1ccc(O)c3c1[C@H]2[C@H]1O[C@H]1C3=O` [altertoxin II], the tumor growth ([1]; 20 mg/kg i.p. days 1, 3, 5, 8 and 10) was “trend of modest tumor growth inhibition”, the “tumor volume vs control on day 14” value ([1]; 20 mg/kg, day 14) was “no statistically significant difference” and the tumor growth ([1]; 40 mg/kg i.p. days 1, 3 and 5, 14-day trial) was “significant inhibition of tumor growth”. The “tumor size vs control on day 14” value ([1]; 40 mg/kg, day 14, p=0.0001) was “significantly smaller than control tumors”, the therapeutic window ([1]; A673 xenograft) was “acceptable therapeutic window” and the “phosphorylation of p53” value [2] was “also observed in RD-ES cells”. For the same compound, the “phosphorylation of Chk1 and Chk2” value ([2]; 10-300 nM, within 6 h) was “caused phosphorylation of checkpoint kinase 1 and 2”, the Chk1 phosphorylation [3] was “Chk1 phosphorylation was also observed” and the Chk1 phosphorylation [4] was “Chk1 phosphorylation was not observed”. It also gave a GI50 (SK-ES-1; Homo sapiens, SK-ES1, SK-ES-1, EWS) of 0.035 µM, a TGI (SK-ES-1; SK-ES-1, EWS) of 0.151 µM and a TGI (A204) of 1.5 µM. The GI50 (A204; Homo sapiens) was 0.96 µM, the TGI (A673) was 0.139 µM and the GI50 (A673; Homo sapiens) was 0.028 µM. For the same compound, the GI50 (SH-SY-5Y; Homo sapiens, SH-SY5Y) was 0.56 µM, the TGI (SH-SY-5Y) was 0.92 µM and the GI50 (D283) was 0.94 µM. The TGI (D283) was 1.7 µM, the “R-loop formation (S9.6 marker)” value (TC-32 cells) was “increased formation of R-loops” and the “phosphorylation of Chk1 and Chk2” value (A673 Ewing sarcoma cells [5]) was “caused phosphorylation of checkpoint kinase 1 and 2”. The 53BP1 foci (A673 Ewing sarcoma cells [6]) was “nuclear foci were noted”, the “activity of conditioned media against Rh30 cells” value (Rh30 cells) was “substantially higher activity” and the “time to appearance of cleaved PARP” value (RD-ES cells) was ≤ 17 h. The “apoptosis (PARP cleavage)” value (SK-ES-1 cells; 100 nM and 1 μM, 18 hours) was “cause apoptosis”, the “time to appearance of cleaved PARP” value (SK-ES-1 cells; 100 nM, seen at 7 and 17 hours) was ≤ 7 h and the “apoptosis (PARP cleavage)” value [7] was “not the rhabdomyosarcoma cells”.
